# Results: ChEMBL document CHEMBL1641506, “Design, synthesis and evaluation of novel tacrine-multialkoxybenzene hybrids as dual inhibitors for cholinesterases and amyloid beta aggregation” (Bioorg Med Chem, 2011)
# Columns and labels:
# Acetylcholinesterase = Acetylcholinesterase (Electrophorus electricus, UniProt O42275)
# Description: Inhibition of electric eel AChE by Ellman's method
# Butyrylcholinesterase = Butyrylcholinesterase (Equus caballus, UniProt Q9N1N9)
# Description: Inhibition of equine BChE by Ellman's method
# [1] = Inhibition of amyloid beta (1-42) self-mediated aggregation at 20 uM by thioflavin T fluorescence method
# Sequence of Butyrylcholinesterase (Q9N1N9 whole entry): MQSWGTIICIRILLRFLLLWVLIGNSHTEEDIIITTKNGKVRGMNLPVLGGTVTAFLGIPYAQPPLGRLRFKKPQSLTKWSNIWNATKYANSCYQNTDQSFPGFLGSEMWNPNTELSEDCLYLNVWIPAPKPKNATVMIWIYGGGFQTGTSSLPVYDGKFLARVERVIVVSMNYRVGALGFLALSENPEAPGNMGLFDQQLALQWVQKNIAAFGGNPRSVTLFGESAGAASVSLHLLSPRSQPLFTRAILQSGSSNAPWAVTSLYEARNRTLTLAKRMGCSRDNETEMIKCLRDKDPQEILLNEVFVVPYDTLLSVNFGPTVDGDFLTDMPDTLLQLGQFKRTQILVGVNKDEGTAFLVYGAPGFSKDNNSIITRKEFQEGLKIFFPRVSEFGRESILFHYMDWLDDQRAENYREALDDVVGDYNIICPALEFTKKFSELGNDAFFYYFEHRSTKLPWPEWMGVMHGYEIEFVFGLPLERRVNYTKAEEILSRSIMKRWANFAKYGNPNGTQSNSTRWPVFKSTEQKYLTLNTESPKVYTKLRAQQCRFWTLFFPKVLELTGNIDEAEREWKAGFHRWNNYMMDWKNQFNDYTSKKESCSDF
# Sequence of Acetylcholinesterase (O42275 whole entry): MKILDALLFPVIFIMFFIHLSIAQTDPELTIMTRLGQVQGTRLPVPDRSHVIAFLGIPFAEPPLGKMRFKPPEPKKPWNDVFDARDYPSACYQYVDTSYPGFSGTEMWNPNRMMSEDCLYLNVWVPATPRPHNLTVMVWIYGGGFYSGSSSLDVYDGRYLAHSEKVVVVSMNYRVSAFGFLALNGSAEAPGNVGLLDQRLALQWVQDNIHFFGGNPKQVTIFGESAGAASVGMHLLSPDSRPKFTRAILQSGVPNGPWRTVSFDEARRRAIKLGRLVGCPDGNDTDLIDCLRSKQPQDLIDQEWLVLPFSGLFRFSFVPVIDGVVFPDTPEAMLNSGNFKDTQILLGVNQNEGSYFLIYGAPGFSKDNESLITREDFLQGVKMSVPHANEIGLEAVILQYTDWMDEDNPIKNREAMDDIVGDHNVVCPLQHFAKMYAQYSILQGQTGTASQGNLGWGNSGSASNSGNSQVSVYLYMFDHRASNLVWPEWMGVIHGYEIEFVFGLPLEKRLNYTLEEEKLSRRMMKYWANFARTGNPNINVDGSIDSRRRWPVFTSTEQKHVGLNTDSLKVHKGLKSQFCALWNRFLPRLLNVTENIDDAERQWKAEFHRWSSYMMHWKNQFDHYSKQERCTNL
SMILES,IC50 (Acetylcholinesterase) [nM],IC50 (Butyrylcholinesterase) [nM],inhibition [1] [%]
COc1ccc(CNCCCCCCNc2c3c(nc4ccccc24)CCCC3)cc1OC,30.9,2.68,–
COc1cc(CNCCCCCCCCNc2c3c(nc4ccccc24)CCCC3)cc(OC)c1OC,9.77,3.38,–
COc1cc(CNCCCCCCCCCNc2c3c(nc4ccccc24)CCCC3)cc2c1OCO2,18.7,11.4,68.5
COc1cc(CNCCCCCCCNc2c3c(nc4ccccc24)CCCC3)cc2c1OCO2,18.4,9.73,65
COc1cc(CNCCCCCCCCNc2c3c(nc4ccccc24)CCCC3)cc2c1OCO2,7.98,7.94,65.2
COc1ccc(CNCCCCCCCCCNc2c3c(nc4ccccc24)CCCC3)cc1OC,25.1,5.67,–
COc1cc(CNCCCCNc2c3c(nc4ccccc24)CCCC3)cc2c1OCO2,113,46.3,63.8
COc1cc(CNCCCCCCNc2c3c(nc4ccccc24)CCCC3)cc(OC)c1OC,22.4,2.59,–
COc1cc(CNCCCCCCCNc2c3c(nc4ccccc24)CCCC3)cc(OC)c1OC,17.3,3.55,–
COc1cc(CNCCCCCCCCCNc2c3c(nc4ccccc24)CCCC3)cc(OC)c1OC,20.2,4.73,–
COc1cc(CNCCCCCCNc2c3c(nc4ccccc24)CCCC3)cc2c1OCO2,20.5,5.19,67.1
COc1ccc(CNCCCCCCCNc2c3c(nc4ccccc24)CCCC3)cc1OC,24,5.51,–
COc1ccc(CNCCCCCCCCNc2c3c(nc4ccccc24)CCCC3)cc1OC,11.3,5.57,–
COc1cc(CNCCCCCNc2c3c(nc4ccccc24)CCCC3)cc2c1OCO2,78.6,29.8,63.1
